From patent US7638514B2, “Pesticidally active phenol derivatives” (Syngenta Crop Protection, Inc., priority 2003, dated 2009)

Columns and labels:
Type in all cases: in vivo
[1] = tested on: Heliothis virescens caterpillars; assay: Action against Heliothis virescens caterpillars; details: 144 h, 400 ppm spray mixture on young soybean plants, 10 caterpillars in the first stage, evaluation 6 days later, read-out: percentage reduction in population and percentage reduction in feeding damage (% activity)
Protocol: (§1) Young soybean plants are sprayed with an aqueous emulsion spray mixture comprising 400 ppm of test compound. After the spray-coating has dried, the soybean plants are populated with 10 caterpillars of Heliothis virescens in the first stage and placed in a plastics container. Evaluation is made 6 days later. The percentage reduction in population and the percentage reduction in feeding damage (% activity) are determined by comparing the number of dead caterpillars and the feeding damage on the treated plants with that on the untreated plants.

[2] = tested on: Plutella xylostella caterpillars; assay: Action against Plutella xylostella caterpillars; details: 72 h, 400 ppm spray mixture on young cabbage plants, 10 caterpillars in the third stage, evaluation 3 days later, read-out: percentage reduction in population and percentage reduction in feeding damage (% activity)
Protocol: as §1, with “cabbage” for “soybean”, “Plutella xylostella” for “Heliothis virescens”, “third” for “first”, “3” for “6”

[3] = tested on: Spodoptera littoralis caterpillars; assay: Action against Spodoptera littoralis; details: 72 h, 400 ppm spray mixture on young soybean plants, 10 caterpillars in the first stage, 3 days later, read-out: percentage reduction in population and percentage reduction in feeding damage (% activity)
Protocol: Young soybean plants are sprayed with an aqueous emulsion spray mixture comprising 400 ppm of test compound and, after the spray-coating has dried, the plants are populated with 10 caterpillars of Spodoptera littoralis in the first stage and then placed in a plastics container, 3 days later, the percentage reduction in population and the percentage reduction in feeding damage (% activity) are determined by comparing the number of dead caterpillars and the feeding damage on the treated plants with that on untreated plants.

Measured: inhibition at 400 ppm

O=C(NCCCOc1c(Cl)cc(OCC=C(Cl)Cl)cc1Cl)C(=C(Cl)Cl)c1ccc(C(F)(F)F)cc1 [Compound 1.2, 3,3-dichloro-N-{3-[2,6-dichloro-4-(3,3-dichloro-allyloxy)-phenoxy]-propyl}-2-(4-trifluoromethyl-phenyl)-acrylamide]
> 80%: all assays above

C=C(COc1ccc(C(F)(F)F)cc1)COc1c(Cl)cc(OCC=C(Cl)Cl)cc1Cl [Compound 1.9, 1,3-dichloro-5-(3,3-dichloro-allyloxy)-2-[2-(4-trifluoromethyl-phenoxymethyl)-allyloxy]-benzene]
> 80%: all assays above
